These are literature values, as cited in patent US20020072062A1, “Chloramphenicol biosynthetic pathway and gene cluster” (Diversa Corporation, priority 1999, published 2002).

Read-outs that look alike come from different tables or passages of the source.

Data set [1] concerns Cm-sensitive Micrococcus luteus. To be noted: against Cm-sensitive Micrococcus luteus; metabolite of Cm from S. lividans M252 pJV4 transformants.
The test system of data set [2] is Streptomyces venezuelae ISP5230.

On to `O=C(NC(COP(=O)(O)O)C(O)c1ccc([N+](=O)[O-])cc1)C(Cl)Cl` (stereo not drawn) [3′-O-phospho-Cm], for which the inhibitory activity entry in data set [1] is “negligible inhibitory activity”. Turning to `Nc1ccc(S(N)(=O)=O)cc1` [sulfanilamide], the sulfanilamide resistance in data set [2] (before replacement of chromosomal pabAB) was 25 micrograms mL-1; in data set [2] (chromosomal pabAB replaced with copy disrupted by apramycin resistance gene), 5 micrograms mL-1.
